The structures appear in SMILES notation. Calls of active or inactive are those of the source.

For test [1], the target named is Fructose-bisphosphate aldolase (Mycobacterium tuberculosis, UniProt P9WQA3). The test is described as follows: Fluorescence-based biochemical high throughput dose response assay for inhibitors of the fructose-bisphosphate aldolase (FBA) of M. tuberculosis. The class given is functional.
Test [2] in a line: cytotoxicity toward NIH3T3 fibroblasts, dose response, counter-screen, cell-based, ATP luminescence, mouse fibroblasts (AID 2010).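 Note: cells exposed to compound for about 90 hours before reading.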 The class given is functional. A general note: The purpose of a counterscreen is to sort out artefacts and off-target activity.
Test [3] is described as follows: inhibitors of intracellular T. cruzi replication, confirmation, NIH3T3 host cells, beta-gal luminescence (AID 2044).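 Note: intracellular parasites grown in NIH/3T3 mouse fibroblasts as host cells; luminescent beta-galactosidase reporter signal from transgenic T. cruzi replicating inside host cells; inhibitors lower the luminescence signal.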 It is filed as functional, cell-based.
Test [4] concerns the target T1, Trace amine-associated receptor 1 (Homo sapiens, UniProt Q96RJ0).
T1 sequence (Q96RJ0 whole entry): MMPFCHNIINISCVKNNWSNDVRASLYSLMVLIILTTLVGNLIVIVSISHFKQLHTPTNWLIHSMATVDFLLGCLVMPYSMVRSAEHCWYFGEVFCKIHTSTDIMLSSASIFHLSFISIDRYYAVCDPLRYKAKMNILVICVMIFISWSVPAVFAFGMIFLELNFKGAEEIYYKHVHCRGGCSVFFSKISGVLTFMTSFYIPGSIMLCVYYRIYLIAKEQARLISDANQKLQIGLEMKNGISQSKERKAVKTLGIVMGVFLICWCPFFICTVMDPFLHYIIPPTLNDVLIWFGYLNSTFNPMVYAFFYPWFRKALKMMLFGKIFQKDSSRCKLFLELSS
Nature of the test: Counterscreen for agonists of the human trace amine associated receptor 1 (hTAAR1): Fluorescence-based cell-based high throughput dose response assay to identify hTAAR1 agonist that also desensitize TAAR1 receptor response. The class given is functional.

Test [5] deals with T1, Trace amine-associated receptor 1. The test is described as follows: Fluorescence-based cell-based high throughput dose response assay to identify agonists of the human trace amine associated receptor 1 (TAAR1). It is filed as functional.
The nature of test [6]: cells. It is filed as functional, cell-based.
The nature of test [7]: cells. The class given is functional, cell-based. The source holds these as a separate data set.
Test [8] deals with T2, Scavenger receptor class B member 1 (Mus musculus, UniProt Q61009). Nature of the test: inhibitors of SR-BI-mediated HDL uptake, dose response, cell-based, ldlA[mSR-BI] CHO, DiI fluorescence, dry powder, set 10 (AID 624029). The class given is functional.
Test [9] has as its target T2, Scavenger receptor class B member 1. The test is described as follows: inhibitors of SR-BI dependent HDL uptake, dose response, ldlA[mSR-BI] CHO cells, fluorescence plate reader, dry powder, set 9 (AID 623880). The class given is functional, cell-based.
A short description of test [10]: LMP1-driven NF-kB reporter inhibition, dose response, cell-based, luciferase reporter, luminescence, dry powder, set 2 (AID 624376). It is filed as functional.
Test [11] in a line: miR-122 activators in hepatoma reporter cells, dose response, cell-based, Huh7 psiCHECK-miR122, Renilla luciferase, cherry-picked (AID 651956).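 Note: huh7 hepatoma cells stably carrying a psiCHECK-2 miR-122 sensor plasmid; renilla luciferase signal reporting endogenous miR-122 activity after 48 h compound exposure.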 It is filed as functional.
Test [12] is described as follows: inhibitors of LMP1-driven NF-kB reporter, dose response, cell-based, EBV LMP1, luciferase, dry powder, set 2 (AID 624361). It is filed as functional.
For another test, the target named is Galanin receptor type 3 (Homo sapiens, UniProt O60755). The test is described as follows: Fluorescence-based cell-based primary high throughput dose response assay to identify antagonists of the Galanin Receptor 3 (GalR3). The class given is functional.
A short description of test [13]: cells. It is filed as functional, cell-based. The following applies: HEK-CNG.

T2 sequence (Q61009 whole entry): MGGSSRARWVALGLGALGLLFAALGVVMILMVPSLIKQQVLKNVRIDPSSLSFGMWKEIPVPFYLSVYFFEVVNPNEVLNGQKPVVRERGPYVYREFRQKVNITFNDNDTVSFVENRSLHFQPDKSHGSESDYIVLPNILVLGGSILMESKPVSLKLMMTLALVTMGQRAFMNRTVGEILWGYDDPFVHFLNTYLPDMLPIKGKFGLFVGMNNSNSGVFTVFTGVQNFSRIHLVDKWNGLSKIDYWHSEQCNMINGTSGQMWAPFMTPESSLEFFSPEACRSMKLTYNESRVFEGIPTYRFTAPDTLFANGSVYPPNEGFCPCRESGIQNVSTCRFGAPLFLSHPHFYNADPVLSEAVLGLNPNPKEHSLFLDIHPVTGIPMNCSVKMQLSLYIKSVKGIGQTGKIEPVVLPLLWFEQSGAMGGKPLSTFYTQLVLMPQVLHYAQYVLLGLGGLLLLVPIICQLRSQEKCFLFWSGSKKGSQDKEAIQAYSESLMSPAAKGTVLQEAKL
Chain of Galanin receptor type 3 (O60755 whole entry): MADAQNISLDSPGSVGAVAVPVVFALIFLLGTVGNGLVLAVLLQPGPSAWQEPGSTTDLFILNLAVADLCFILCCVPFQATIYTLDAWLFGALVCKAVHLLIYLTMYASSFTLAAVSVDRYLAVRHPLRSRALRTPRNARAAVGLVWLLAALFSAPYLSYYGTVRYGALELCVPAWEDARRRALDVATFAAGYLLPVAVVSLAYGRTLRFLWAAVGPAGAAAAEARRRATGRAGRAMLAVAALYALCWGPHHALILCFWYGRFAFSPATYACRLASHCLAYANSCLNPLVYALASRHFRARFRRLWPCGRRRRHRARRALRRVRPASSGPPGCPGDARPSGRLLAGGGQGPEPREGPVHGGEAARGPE
Chain of Fructose-bisphosphate aldolase (P9WQA3 whole entry): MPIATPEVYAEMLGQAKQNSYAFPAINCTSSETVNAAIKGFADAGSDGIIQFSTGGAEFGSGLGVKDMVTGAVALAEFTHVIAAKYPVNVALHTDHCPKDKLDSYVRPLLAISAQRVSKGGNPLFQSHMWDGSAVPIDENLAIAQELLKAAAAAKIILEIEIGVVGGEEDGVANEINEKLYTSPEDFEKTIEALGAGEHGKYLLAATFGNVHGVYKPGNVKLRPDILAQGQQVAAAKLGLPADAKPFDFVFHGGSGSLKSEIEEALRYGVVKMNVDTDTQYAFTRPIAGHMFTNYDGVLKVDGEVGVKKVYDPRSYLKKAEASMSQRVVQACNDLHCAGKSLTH

Broadly, the IC50 is the concentration at which inhibition is half-maximal. Broadly, the EC50 is the concentration at which the effect is half-maximal. As to `Nc1nc2n(n1)C(c1cccs1)CC(c1ccc(Br)cc1)N2` (centres undefined), in test [1], the IC50 was 4.61 µM (active). Besides, the results for the EC50 in test [2] and in test [3] were > 60 µM (not active) and 4.37 µM (active), respectively.

Take `Fc1ccccc1N1CCN(C(c2cccs2)c2nnnn2CCc2ccccc2)CC1` (centres undefined): the values for the IC50 (in test [4]; in “cells [6]”) were 6.73 µM (active) and > 29.9 µM (inactive), respectively. For the same molecule, the values for the EC50 (in [5]; in “cells [7]”) were 4.06 µM (active) and > 29.9 µM (inactive), respectively.

The term AC50 denotes the concentration giving half of the maximal activity seen. `Cc1noc(C)c1S(=O)(=O)Nc1ccc2c(c1)C(=O)N([C@H](C)CO)C[C@@H](C)[C@H](CN(C)S(=O)(=O)c1ccc(Cl)cc1)O2`: the AC50 was 0.123 µM (active) in test [8] and 0.158 µM (active) in test [9].

For `COc1ccccc1C#Cc1cnc2c(c1)C(=O)N([C@H](C)CO)C[C@H](C)[C@@H](CN(C)C(=O)c1ccc3c(c1)OCO3)O2`, the values for the AbsAC35 in test [10] and in test [12] were 52.21 µM and 41.32 µM, respectively. Also, the concentration at half-maximal activity (AC50) in [11] is 13.6 µM (active).

On to `Cc1onc(-c2ccccc2Cl)c1C(=O)NNC(=O)c1cccc(F)c1`, for which, at Galanin receptor type 3, the IC50 was > 29.9 µM (inactive). Moreover, the EC50 in “cells [13]” was > 29.9 µM (inactive).
